The chromatographic logP is a lipophilicity value derived from retention on a column. Read a low chromatographic logP as a more hydrophilic compound. One may read the logP as a log measure of how a compound divides between an organic and an aqueous phase.

Chromatographic logP and logP data for 52 molecules are collected here from US20110218188A1, “SUBSTITUTED (PYRIDYL)-AZINYLAMINE DERIVATIVES AS FUNGICIDES” (priority 2008, published 2011).

A short description of this data set: Measurement of logP values by HPLC on reversed phase columns (EEC directive 79/831 Annex V.A8). As to conditions: pH 2.7. It is filed as physicochemical.
For `CCOC(=N)c1cc(-c2ncnc(Nc3cccc(Cl)c3)n2)ccn1` [Example B102, ethyl 4-{4-[(3-chlorophenyl)amino]-1,3,5-triazin-2-yl}pyridine-2-carboximidoate], the chromatographic logP was found to be 2.08. Consider `COCC(=O)ON=C(N)c1cc(-c2ncnc(Nc3cccc(Cl)c3)n2)ccn1` [Example B104, 4-{4-[(3-chlorophenyl)amino]-1,3,5-triazin-2-yl}-N′-[(methoxyacetyl)oxy]pyridine-2-carboximidamide], for which the chromatographic logP was found to be 2.92. In turn, `O=C(NCCN1CCOCC1)c1cc(-c2ncnc(Nc3cccc(Cl)c3)n2)ccn1` [Example B105] yielded a logP of 1.68. Turning to `CC(C)CC(=O)O/N=C(/N)c1cc(-c2ncnc(Nc3cccc(Cl)c3)n2)ccn1` [Example B110], the logP is reported as 4.12. Regarding `CC(C)=CC(=O)O/N=C(/N)c1cc(-c2ncnc(Nc3cccc(Cl)c3)n2)ccn1` [Example B111], the logP came to 3.92. `O=C(NC1CCC1)c1cc(-c2ncnc(Nc3cccc(Cl)c3)n2)ccn1` [Example B113] had a logP of 3.89. Still for that read-out and setting: the value for `CCN(CC)CC(C)NC(=O)c1cc(-c2ncnc(Nc3cccc(Cl)c3)n2)ccn1` (stereo not shown) [Example B114] was 1.9; that for `O=C(c1cc(-c2ncnc(Nc3cccc(Cl)c3)n2)ccn1)N1CCCCC1` [Example B115] was 3.1; that for `O=C(c1cc(-c2ncnc(Nc3cccc(Cl)c3)n2)ccn1)N1CCOCC1` [Example B116] was 2.39. Molecule `CCCC(C)NC(=O)c1cc(-c2ncnc(Nc3cccc(Cl)c3)n2)ccn1` (stereo not shown) [Example B118] had a logP of 4.54. `NC(=S)c1cc(-c2ncnc(Nc3cccc(Cl)c3)n2)ccn1` [Example B119] displayed a logP of 3.12. As for `CCCCN(C)C(=O)c1cc(-c2ncnc(Nc3cccc(Cl)c3)n2)ccn1` [Example B123], the log partition coefficient (logP) was 3.48. The same measure, in the same setting: for `CCCN(CCC)C(=O)c1cc(-c2ncnc(Nc3cccc(Cl)c3)n2)ccn1` [Example B124] the value was 3.89. `CCCN(CC)C(=O)c1cc(-c2ncnc(Nc3cccc(Cl)c3)n2)ccn1` [Example B125]: the logP was found to be 3.46. Molecule `CCCCN(CCC)C(=O)c1cc(-c2ncnc(Nc3cccc(Cl)c3)n2)ccn1` [Example B126] registered a log partition coefficient (logP) of 4.31.

Consider `C=CCN(C)C(=O)c1cc(-c2ncnc(Nc3cccc(Cl)c3)n2)ccn1` [Example B127], for which the logP was found to be 2.96. With `CCCCCCN(C)C(=O)c1cc(-c2ncnc(Nc3cccc(Cl)c3)n2)ccn1` [Example B128], the logP worked out at 4.34. Same read-out and setting: for `CN(CCC#N)C(=O)c1cc(-c2ncnc(Nc3cccc(Cl)c3)n2)ccn1` [Example B129] the value was 2.51. The molecule `CCN(CC)C(=O)c1cc(-c2ncnc(Nc3cccc(Cl)c3)n2)ccn1` [Example B130] gave a log partition coefficient (logP) of 3.06. The molecule `CC1CCN(C(=O)c2cc(-c3ncnc(Nc4cccc(Cl)c4)n3)ccn2)CC1` [Example B131] came in with a log partition coefficient (logP) of 3.51. For `CCCN(C)C(=O)c1cc(-c2ncnc(Nc3cccc(Cl)c3)n2)ccn1` [Example B132], the lipophilicity (logP) is 3.06. On the same count and under the same terms, for `CN(CC1CC1)C(=O)c1cc(-c2ncnc(Nc3cccc(Cl)c3)n2)ccn1` [Example B133] the value was 3.15. Same read-out and setting: for `COC[C@H]1CCCN1C(=O)c1cc(-c2ncnc(Nc3cccc(Cl)c3)n2)ccn1` [Example B134] the value was 3.08. `CC1CCCN(C(=O)c2cc(-c3ncnc(Nc4cccc(Cl)c4)n3)ccn2)C1` (stereo not shown) [Example B135] showed a logP of 3.48.

The molecule `CN(CCO)C(=O)c1cc(-c2ncnc(Nc3cccc(Cl)c3)n2)ccn1` [Example B136] had a lipophilicity (logP) of 2.04. In turn, `CC1CCCN(C(=O)c2cc(-c3ncnc(Nc4cccc(Cl)c4)n3)ccn2)C1C` (stereo not shown) [Example B137] gave a logP of 3.78. For the molecule `O=C(c1cc(-c2ncnc(Nc3cccc(Cl)c3)n2)ccn1)N1CCCCCC1` [Example B138], the logP is given as 3.46. The molecule `CCC1CCCCN1C(=O)c1cc(-c2ncnc(Nc3cccc(Cl)c3)n2)ccn1` (stereo not shown) [Example B139] came in with a lipophilicity (logP) of 3.8. In turn, `O=C(c1cc(-c2ncnc(Nc3cccc(Cl)c3)n2)ccn1)N1CCCC(O)C1` (stereo not shown) [Example B140] returned a lipophilicity (logP) of 2.2. `CC1CCC(C)N1C(=O)c1cc(-c2ncnc(Nc3cccc(Cl)c3)n2)ccn1` (stereo not shown) [Example B141] had a logP of 3.64. As to `CC1CCCCN1C(=O)c1cc(-c2ncnc(Nc3cccc(Cl)c3)n2)ccn1` (stereo not shown) [Example B142], the logP turned out to be 3.39. With `C=CCN(CC=C)C(=O)c1cc(-c2ncnc(Nc3cccc(Cl)c3)n2)ccn1` [Example B143], the log partition coefficient (logP) worked out at 3.67. On the same count and under the same terms, the value for `CN(C(=O)c1cc(-c2ncnc(Nc3cccc(Cl)c3)n2)ccn1)C1CCCCC1` [Example B144] was 3.89; that for `O=C(c1cc(-c2ncnc(Nc3cccc(Cl)c3)n2)ccn1)N1CCCC(CO)C1` (stereo not shown) [Example B145] was 2.3; that for `CC(C)CCN(C)C(=O)c1cc(-c2ncnc(Nc3cccc(Cl)c3)n2)ccn1` [Example B146] was 3.87. For `CC1(C)CCCN(C(=O)c2cc(-c3ncnc(Nc4cccc(Cl)c4)n3)ccn2)C1` [Example B147], the logP turned out to be 3.83.

Consider `CC(C)=CCN(C)C(=O)c1cc(-c2ncnc(Nc3cccc(Cl)c3)n2)ccn1` [Example B148], for which the logP is 3.67. With `CN(C(=O)c1cc(-c2ncnc(Nc3cccc(Cl)c3)n2)ccn1)C1CCCC1` [Example B149], the logP is 3.51.

Molecule `CN(C)C(=O)c1cc(-c2ncnc(Nc3cccc(Cl)c3)n2)ccn1` [Example B150] registered a logP of 2.4. In turn, `CC(C)CN(C)C(=O)c1cc(-c2ncnc(Nc3cccc(Cl)c3)n2)ccn1` [Example B151] registered a log partition coefficient (logP) of 3.42. On to `CC1CCCN1C(=O)c1cc(-c2ncnc(Nc3cccc(Cl)c3)n2)ccn1` (stereo not shown) [Example B152], for which the logP came to 3.23. `O=C(c1cc(-c2ncnc(Nc3cccc(Cl)c3)n2)ccn1)N1CC=CCC1` [Example B153]: the logP is recorded as 3.11. For the molecule `CC1CC(C)CN(C(=O)c2cc(-c3ncnc(Nc4cccc(Cl)c4)n3)ccn2)C1` (stereo not shown) [Example B155], the lipophilicity (logP) is reported as 3.96. As for `C=C(C)CN(CC)C(=O)c1cc(-c2ncnc(Nc3cccc(Cl)c3)n2)ccn1` [Example B156], the lipophilicity (logP) was 3.67. On the same count and under the same terms, for `CCN(C)C(=O)c1cc(-c2ncnc(Nc3cccc(Cl)c3)n2)ccn1` [Example B157] the value was 2.69. `CC(C)N(C)C(=O)c1cc(-c2ncnc(Nc3cccc(Cl)c3)n2)ccn1` [Example B158]: the lipophilicity (logP) is recorded as 2.96. Molecule `CCCN(CC1CC1)C(=O)c1cc(-c2ncnc(Nc3cccc(Cl)c3)n2)ccn1` [Example B159] returned a logP of 3.94.

As to `CN(CC1CCCO1)C(=O)c1cc(-c2ncnc(Nc3cccc(Cl)c3)n2)ccn1` (stereo not shown) [Example B160], the logP was 2.76. As for `CCCCCN(C)C(=O)c1cc(-c2ncnc(Nc3cccc(Cl)c3)n2)ccn1` [Example B161], the logP is reported as 3.89. As to `CCCCN(CC)C(=O)c1cc(-c2ncnc(Nc3cccc(Cl)c3)n2)ccn1` [Example B162], the lipophilicity (logP) stood at 3.87. The molecule `O=CN1CCN(C(=O)c2cc(-c3ncnc(Nc4cccc(Cl)c4)n3)ccn2)CC1` [Example B163] gave a logP of 2.04. On to `CCN(CCO)C(=O)c1cc(-c2ncnc(Nc3cccc(Cl)c3)n2)ccn1` [Example B164], for which the logP was 2.25.
